Assay results reported in patent US20230286973A1, “PROTEIN SECRETION INHIBITORS” (KEZAR LIFE SCIENCES, priority 2020, published 2023).

What was measured:
[1] = tested on: PD1-ss+10aa/Gaussia Luciferase; assay: Dox-Induced PD1-ss-Gluc Assay; format: cell-based; details: 24 hr Dox induction; 293FRT/TO cells; read-out: 24 hr Dox Inducible PD1ssGluc 293FRT/TO: Mean IC50
How it was run: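 Flp-In 293 T-REx cells stably carrying a doxycycline-inducible Gaussia luciferase fused to the PD1 signal sequence plus 10 aa were plated the day before. Compound dilutions in DMSO/media containing doxycycline were then added and incubated at 37 °C, 5% CO2. Data for undefined stereochemistry refer to stereoisomer mixtures.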

[2] = tested on: TNFα-FL/Gaussia Luciferase; assay: Dox Induced TNFα-FL-Gluc Assay; format: cell-based; details: for IC50: 24 hr Dox induction, 293FRT/TO cells, read-out: 24 hr Dox Inducible TNFaFLGluc 293FRT/TO: Mean IC50; for 24 hr Dox Inducible TNFaFLGluc 293FRT/TO: TNF/PD1: ratio of TNFaFLGluc IC50 to PD1ssGluc IC50
How it was run: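 Stereoisomer mixtures were tested where stereochemistry is not drawn. Induction used doxycycline added together with compound dilutions in DMSO/media to Flp-In 293 T-REx cells carrying a T-REx-regulated TNFα (aa 1-233)-Gaussia luciferase construct, then incubated at 37 °C, 5% CO2.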

[3] = tested on: HER3-ss+4aa/Gaussia Luciferase; assay: Dox-Induced Her3-ss-Gluc Assay; format: cell-based; details: 24 hr Dox induction; 293FRT/TO cells; read-out: 24 hr Dox Inducible Her3(ss + 4)Gluc 293FRT/TO: Mean IC50
How it was run: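 Cells were seeded a day ahead, then given compound diluted in DMSO/media with doxycycline to induce expression of the HER3 signal sequence (+4 aa)–Gaussia luciferase fusion. Incubation was at 37° C., 5% CO2, in a stable Flp-In 293 T-REx line.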

[4] = tested on: IL-2-FL/Gaussia Luciferase; assay: Dox Induced IL2-FL-Gluc Assay; format: cell-based; details: for IC50: 24 hr Dox induction, 293FRT/TO cells, read-out: 24 hr Dox Inducible IL2FLGluc 293FRT/TO: Mean IC50; for 24 hr Dox Inducible IL2FLGluc 293FRT/TO: IL2/PD1: ratio of IL2FLGluc IC50 to PD1ssGluc IC50
How it was run: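 Cells are plated one day ahead, then receive compound dilutions in DMSO/media with doxycycline and incubate at 37° C, 5% CO2. They are Flp-In 293 T-REx cells expressing a full-length IL-2 (amino acids 1-153)–Gaussia luciferase fusion under T-REx control.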

[5] = tested on: multiple myeloma cell line NCI-H929; assay: H929 Cell Viability Assay; format: cell-based, human; details: Homo sapiens, NCI-H929, 48 h, NCI-H929 cells, Celltiter-Glo
How it was run: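 Luminescent ATP detection (CellTiter-Glo) after 48 hours of compound exposure measures viability. Cells were plated in RPMI 1640 containing 10% fetal bovine serum and kept at 37° C under 5% CO2.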

[6] = tested on: multiple myeloma cell line U266B1; assay: U266 Cell Viability Assay; format: cell-based, human; details: Homo sapiens, U-266, 48 h, U266B1 cells, Celltiter-Glo
How it was run: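 Steps: culture in RPMI 1640 plus 10% FBS and 2 mM glutamine; plate and add compound dilutions; incubate 48 hours at 37° C., 5% CO2; add CellTiter-Glo and quantify luciferase signal.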

[7] = Liver Microsome Stability Assay (rat); details: rat liver microsomes, with NADPH, 1.0 uM compound
Description: (§1) Stability of a compound was assessed in the presence of liver microsomes from various sources—mouse, rat, monkey and human liver microsomes. 1.0 uM compound, 0.4% DMSO in 0.1 M Potassium Phosphate with 1.0 mg/mL liver microsomes, were incubated at 37° C. with or without 1 mM NADPH. The samples were quenched at 0, and 30 minutes.

[8] = Liver Microsome Stability Assay (mouse); details: mouse liver microsomes, with NADPH, 1.0 uM compound
Description: as §1

[9] = Liver Microsome Stability Assay (human); details: human liver microsomes, with NADPH, 1.0 uM compound
Description: as §1

[10] = Liver Microsome Stability Assay (monkey); details: monkey liver microsomes, with NADPH, 1.0 uM compound
Description: as §1

Row | IC50 [1] | IC50 [2] | IC50 [3] | IC50 [4] | EC50 [5] | EC50 [6] | Liver Microsome Stability (Multiple Species): Rat - % Remaining after 30 min w/NADPH [7] | Liver Microsome Stability (Multiple Species): Mouse - % Remaining after 30 min w/NADPH [8] | Liver Microsome Stability (Multiple Species): Human - % Remaining after 30 min w/NADPH [9] | Liver Microsome Stability (Multiple Species): Monkey - % Remaining after 30 min w/NADPH [10] | Structure (SMILES) | 24 hr Dox Inducible TNFaFLGluc 293FRT/TO: TNF/PD1 [2] | 24 hr Dox Inducible IL2FLGluc 293FRT/TO: IL2/PD1 [4]
1 | 0.26 µM | 3.53 µM | 0.61 µM | 0.875 µM | 24.2 µM | > 25 µM | 7.12% | 5.24% | 0.69% | 0.47% | CN1c2ccccc2CCC1/C=C/c1csc(NC(=O)c2cccn2Cc2ccncc2)n1 (stereo not drawn) [Compound B8, (E)-N-(4-(2-(1-methyl-1,2,3,4-tetrahydroquinolin-2-yl)vinyl)thiazol-2-yl)-1-(pyridin-4-ylmethyl)-1H-pyrrole-2-carboxamide] | 13.6 | 3.4
2 | 0.91 µM | > 25 µM | 1.61 µM | 1.85 µM | 15.2 µM | 10.4 µM | 3.44% | 0.31% | 0.41% | 0.17% | O=C(Nc1nc(/C=C/C2CN(S(=O)(=O)c3ccccc3)CCO2)cs1)c1cccn1Cc1ccncc1 (stereo not drawn) [Compound B9, (E)-N-(4-(2-(4-(phenylsulfonyl)morpholin-2-yl)vinyl)thiazol-2-yl)-1-(pyridin-4-ylmethyl)-1H-pyrrole-2-carboxamide] | >27.5 | 2
3 | 20 µM | > 25 µM | > 25 µM | > 25 µM | > 25 µM | > 25 µM | 2.71% | 9.22% | 1.05% | 0.1% | CC(=O)N1CCOC(/C=C/c2csc(NC(=O)c3cccn3Cc3ccncc3)n2)C1 (stereo not drawn) [Compound B10, (E)-N-(4-(2-(4-acetylmorpholin-2-yl)vinyl)thiazol-2-yl)-1-(pyridin-4-ylmethyl)-1H-pyrrole-2-carboxamide] | >1.25 | 1.3
4 | > 25 µM | > 25 µM | > 25 µM | > 25 µM | > 25 µM | > 25 µM | 11% | 1.41% | 3.28% | 4.16% | O=C1NC(/C=C/c2csc(NC(=O)c3cccn3Cc3ccncc3)n2)CO1 (stereo not drawn) [Compound B12] | <=>1.00 | 1
5 | > 25 µM | > 25 µM | > 25 µM | > 25 µM | > 25 µM | > 25 µM | 6.37% | 4.96% | 0.48% | 0.6% | O=C1CCCC(/C=C/c2csc(NC(=O)c3cccn3Cc3ccncc3)n2)N1 (stereo not drawn) [Compound B13, (E)-N-(4-(2-(6-oxopiperidin-2-yl)vinyl)thiazol-2-yl)-1-(pyridin-4-ylmethyl)-1H-pyrrole-2-carboxamide] | <=>1.00 | 1
6 | 0.0882 µM | 4.7 µM | 1.1 µM | 1.56 µM | > 25 µM | > 25 µM | 2.09% | 3.02% | 0.82% | 0.38% | O=C(Nc1nc(/C=C/C2CN(c3ccccc3)CCO2)cs1)c1cccn1Cc1ccncc1 (stereo not drawn) [Compound B18, (E)-N-(4-(2-(4-phenylmorpholin-2-yl)vinyl)thiazol-2-yl)-1-(pyridin-4-ylmethyl)-1H-pyrrole-2-carboxamide] | 53.3 | 18
7 | 0.0637 µM | > 25 µM | 5.56 µM | 9.19 µM | 24.1 µM | > 25 µM | 0.28% | 4.32% | 0.68% | 1.26% | Cc1ocnc1/C=C/c1csc(NC(=O)c2cccn2Cc2ccncc2)n1 [Compound B33, (E)-N-(4-(2-(5-methyloxazol-4-yl)vinyl)thiazol-2-yl)-1-(pyridin-4-ylmethyl)-1H-pyrrole-2-carboxamide] | >392 | 140
8 | 0.778 µM | > 25 µM | > 25 µM | > 25 µM | > 25 µM | > 25 µM | 0.87% | 0.97% | 0.75% | 1.77% | O=C(Nc1nc(/C=C/c2ncco2)cs1)c1cccn1Cc1ccncc1 [Compound B34, (E)-N-(4-(2-(oxazol-2-yl)vinyl)thiazol-2-yl)-1-(pyridin-4-ylmethyl)-1H-pyrrole-2-carboxamide] | >32.1 | >32
9 | 0.466 µM | > 25 µM | > 25 µM | > 25 µM | > 25 µM | > 25 µM | 0.46% | 2.61% | 2.88% | 1.04% | Cc1cnc(/C=C/c2csc(NC(=O)c3cccn3Cc3ccncc3)n2)o1 [Compound B35, (E)-N-(4-(2-(5-methyloxazol-2-yl)vinyl)thiazol-2-yl)-1-(pyridin-4-ylmethyl)-1H-pyrrole-2-carboxamide] | >53.7 | >54
10 | 0.173 µM | 3.75 µM | 0.773 µM | 2.51 µM | 7.03 µM | 7.33 µM | 2.95% | 9.8% | 0.7% | 3.93% | CC(C)(C)c1nc(/C=C/c2csc(NC(=O)c3cccn3Cc3ccncc3)n2)co1 [Compound B36, (E)-N-(4-(2-(2-(tert-butyl)oxazol-4-yl)vinyl)thiazol-2-yl)-1-(pyridin-4-ylmethyl)-1H-pyrrole-2-carboxamide] | 21.7 | 14
